# Measured values reported in article PMC4934371 (Biochemistry, 2016).
# Tests used:
# [1] = target: T1, triosephosphate isomerase (TbbTIM) (Trypanosoma brucei, UniProt P04789, I172A/L232A); assay: activation of [[…]-13C]-glycolaldehyde turnover followed by 1H NMR, fit to give Kd; type: biochemical
# O=C[C@H](O)COP(=O)(O)O = assay: steady-state kinetics of isomerization; type: biochemical, Trypanosoma brucei; settings: active site; pH 7.5; 25.0 °C
# [2] = target: T1, triosephosphate isomerase (TbbTIM); assay: X-ray crystal structure; type: biochemical
compound,measurement,setting,value
"O=[PH](O)O [HPi, phosphite dianion]",Kd,[1],5.9 ± 0.5 mM
triosephosphate isomerase (TbbTIM) (Trypanosoma brucei brucei; I172A/L232A),kcat/Km,O=C[C@H](O)COP(=O)(O)O,350000 M⁻¹ s⁻¹
"O=C(O)COP(=O)(O)O [PGA, 2-phosphoglycolate]",Ki,[2],0.12 mM
